# Test results reported in the supplement of paper PMC10307832.
# Experiments:
# [1] = compound: CC1=CC(=CC=C1)NC2=NC(=CS2)C3=CC=NC=C3 + NC(=O)Nc1cc(-c2cccc(F)c2)sc1C(=O)N[C@H]1CCCNC1 [AZD7762] (partner 0.2 µM); assay: relative viability (nuclei count vs DMSO), 5 days (fraction); higher = more cells survive
# Method in brief: (§1)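 Relative viability equals treated-well nuclei counts divided by vehicle-well nuclei counts. Counts came from 4× images of lung cancer cell lines grown in 1536-well plates for 5 days after pin-tool dosing on the day after seeding. Dosing used one drug alone or a fixed anchor-drug dose plus five library-drug doses (not always all listed) in √10 steps, and values are medians of duplicate plates.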
# [2] = compound: CC1=CC(=CC=C1)NC2=NC(=CS2)C3=CC=NC=C3 + O=C(CCCCCCC(=O)Nc1ccccc1)NO [Vorinostat] (partner 1 µM); assay: as above
# Method in brief: as §1
Cell Line,relative viability ([1]; first compound 0.08 µM),relative viability ([1]; first compound 0.253 µM),relative viability ([1]; first compound 0.8 µM),relative viability ([1]; first compound 2.53 µM),relative viability ([1]; first compound 8 µM),relative viability ([2]; first compound 0.08 µM),relative viability ([2]; first compound 0.253 µM),relative viability ([2]; first compound 0.8 µM),relative viability ([2]; first compound 2.53 µM),relative viability ([2]; first compound 8 µM)
201T,0.811,0.79,0.777,0.865,0.618,0.933,0.937,0.92,0.842,0.76
A-427,0.646,0.795,0.815,0.81,0.646,0.815,0.835,0.857,0.912,0.753
ABC-1,0.675,0.613,0.688,0.628,0.881,0.944,–,1.44,0.963,0.377
BEN,0.641,0.614,0.662,0.566,0.659,0.566,0.572,0.503,0.536,0.595
CAL-12T,0.527,0.63,0.604,0.516,0.561,0.565,0.74,0.85,0.609,0.716
COR-L23,–,–,–,–,–,0.251,0.422,0.317,0.375,0.36
COR-L 105,–,–,–,–,–,0.831,0.776,0.724,0.724,0.818
ChaGo-K-1,0.842,0.83,0.835,0.828,0.75,0.681,0.735,0.734,0.777,0.777
EKVX,0.63,0.703,–,0.764,0.524,0.31,0.585,0.507,0.488,0.502
EMC-BAC-2,0.933,1.02,1.14,0.909,1.17,0.367,–,0.579,0.343,0.425
EPLC-272H,0.201,0.153,0.445,–,0.215,0.483,0.353,0.465,0.292,0.639
H3255,0.936,0.902,0.866,0.665,0.765,0.758,0.723,0.65,0.666,0.717
HARA,0.306,0.466,0.317,0.356,0.273,0.492,0.523,0.501,0.391,0.302
HCC-15,1.11,1.19,1.03,1.03,1.02,0.678,0.645,0.773,0.67,0.636
HCC-44,0.849,0.853,0.946,0.876,0.88,1.02,0.926,0.826,0.797,0.825
HCC-78,0.674,0.409,0.613,0.449,0.658,0.513,0.468,0.477,0.41,0.481
HCC-366,0.32,0.322,0.266,0.24,0.128,0.248,0.172,0.255,0.186,0.198
HCC-827,0.352,0.418,0.53,0.216,0.28,0.778,0.772,0.819,0.651,0.653

Cell Line,relative viability ([1]; first compound 0.08 µM),relative viability ([1]; first compound 0.253 µM),relative viability ([1]; first compound 0.8 µM),relative viability ([1]; first compound 2.53 µM),relative viability ([1]; first compound 8 µM),relative viability ([2]; first compound 0.08 µM),relative viability ([2]; first compound 0.253 µM),relative viability ([2]; first compound 0.8 µM),relative viability ([2]; first compound 2.53 µM),relative viability ([2]; first compound 8 µM)
HOP-62,0.629,0.598,0.619,0.861,0.578,0.531,0.605,0.591,0.584,0.595
IA-LM,–,–,–,–,–,0.884,0.954,0.942,–,0.78
LC-2-ad,0.823,0.845,0.911,0.835,0.821,0.607,0.647,0.688,0.624,0.658
LCLC-97TM1,0.338,0.292,0.379,0.246,0.376,0.558,0.741,0.623,0.601,0.988
LCLC-103H,0.73,0.755,0.725,0.74,0.651,0.635,0.69,0.679,0.667,0.567
LK-2,–,0.429,0.555,0.36,0.618,0.356,0.307,0.527,0.402,1
LOU-NH91,0.615,0.631,0.714,0.761,0.468,0.766,0.776,0.887,0.861,0.436
LU99A,0.36,0.326,0.361,0.374,0.442,0.445,0.601,0.582,0.443,0.479
LXF-289,1.04,1.12,1.04,1.2,0.964,0.746,0.808,0.801,0.679,0.718
NCI-H23,0.283,0.276,0.213,0.244,0.223,0.519,0.613,0.596,0.526,0.612
NCI-H322M,0.46,0.549,0.551,0.553,0.455,0.788,0.759,0.916,0.814,0.95
NCI-H358,–,0.594,0.532,0.521,0.542,0.633,0.653,0.518,0.662,0.624
NCI-H441,1.1,1.01,1.1,1.35,0.997,0.705,0.955,0.842,0.746,0.76
NCI-H460,0.555,0.529,0.625,0.622,0.497,0.54,0.536,0.562,0.462,0.395
NCI-H520,–,–,–,–,–,0.624,0.694,0.779,0.851,0.838
NCI-H522,0.681,0.822,0.803,0.848,0.852,0.91,1.03,1.01,0.924,0.849
NCI-H596,0.913,0.98,0.959,1.15,0.86,0.552,0.489,0.453,0.529,0.422
NCI-H647,0.379,0.372,0.558,0.382,0.414,0.576,0.531,0.591,0.498,0.454
